Biological target: T1, Angiotensin II Receptor (Bos taurus, UniProt P25104)
T1 construct: The brownish tissue forming the adrenal cortex is scraped off and finely minced with scissors before homogenization; tissue local slaughter house (Maxwell-Cohen); host or cells: beef adrenal cortex, microsomal membranes (100,000×g pellet)
T1 sequence (P25104 1-359): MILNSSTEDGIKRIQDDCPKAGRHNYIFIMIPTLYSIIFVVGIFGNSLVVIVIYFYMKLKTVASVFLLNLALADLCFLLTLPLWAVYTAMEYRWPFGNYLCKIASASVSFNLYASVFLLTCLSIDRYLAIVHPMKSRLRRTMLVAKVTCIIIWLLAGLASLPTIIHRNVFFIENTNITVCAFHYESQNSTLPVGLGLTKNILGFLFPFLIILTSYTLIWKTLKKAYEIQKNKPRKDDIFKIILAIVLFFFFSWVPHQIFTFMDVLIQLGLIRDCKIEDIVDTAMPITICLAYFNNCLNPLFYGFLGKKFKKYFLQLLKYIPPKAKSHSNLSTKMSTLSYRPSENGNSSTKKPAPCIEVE
Test: Receptor binding assay: competition of [^125 I](Sar^1,Ile^8)AngII binding to beef adrenal cortex microsomal membranes
Conditions: 60 min, room temperature, pH 7.4

- IC50: 170 nM
Compound: CCCCc1nc2ccc(C3CC(c4ccc(C)o4)=NO3)cc2c(=O)n1Cc1ccc(-c2ccccc2-c2nnn[nH]2)cc1 (stereo not shown) [Example 19]

Source: patent US5284853A, “Angiotensin II receptor blocking 2,3,6 substituted quinazolinones” (American Cyanamid Company, priority 1993, dated 1994)
